Laboratory results: patent publication US8063048B2, “Acetylenyl-pyrazolo-pyrimidine derivatives” (Hoffmann-La Roche Inc., priority 2005, dated 2011)

Row | melting point | Structure (SMILES)
1 | 209 to 211 °C | CCOc1cc(-c2cc(C(F)(F)F)n3ncc(C#Cc4cccc(S(=O)(=O)NC(C)(C)CO)c4)c3n2)ccc1C(F)(F)F [Example 41, 3-[5-(3-Ethoxy-4-trifluoromethyl-phenyl)-7-trifluoromethyl-pyrazolo[1,5-a]pyrimidin-3-ylethynyl]-N-(2-hydroxy-1,1-dimethyl-ethyl)-benzenesulfonamide]
2 | 210 °C | NS(=O)(=O)c1ccc(C#Cc2cnn3c(C(F)F)cc(-c4ccc(C(F)(F)F)cc4)nc23)s1 [Example 164, 5-[7-Difluoromethyl-5-(4-trifluoromethyl-phenyl)-pyrazolo[1,5-a]pyrimidin-3-ylethynyl]-thiophene-2-sulfonic acid amide]
3 | 147 to 148 °C | COCCNS(=O)(=O)c1cccc(C#Cc2cnn3c(C(F)F)cc(-c4ccc(C(F)(F)F)cc4)nc23)c1 [Example 146, 3-[7-Difluoromethyl-5-(4-trifluoromethyl-phenyl)-pyrazolo[1,5-a]pyrimidin-3-ylethynyl]-N-(2-methoxy-ethyl)-benzenesulfonamide]
4 | 233 to 234 °C | Cc1cc(C#Cc2cnn3c(C(F)(F)F)cc(-c4ccc(C(F)(F)F)cc4)nc23)cnc1N [Example 127, 3-Methyl-5-[7-trifluoromethyl-5-(4-trifluoromethyl-phenyl)-pyrazolo[1,5-a]pyrimidin-3-ylethynyl]-pyridin-2-ylamine]
5 | 161 °C | NCCNS(=O)(=O)c1ccc(C#Cc2cnn3c(C(F)(F)F)cc(-c4ccc(C(F)(F)F)cc4)nc23)s1 [Example 263, 5-[7-Trifluoromethyl-5-(4-trifluoromethyl-phenyl)-pyrazolo[1,5-a]pyrimidin-3-ylethynyl]-thiophene-2-sulfonic acid (2-amino-ethyl)-amide]
6 | 251 to 254 °C | Cc1nc(N)ccc1C#Cc1cnn2c(C(F)(F)F)cc(-c3ccc(C(F)(F)F)cc3)nc12 [Example 128, 6-Methyl-5-[7-trifluoromethyl-5-(4-trifluoromethyl-phenyl)-pyrazolo[1,5-a]pyrimidin-3-ylethynyl]-pyridin-2-ylamine]
7 | 230 to 231 °C | CC(C)(CO)NS(=O)(=O)c1cncc(C#Cc2cnn3c(C4CC4)cc(-c4ccc(Cl)cc4)nc23)c1 [Example 67, 5-[5-(4-Chloro-phenyl)-7-cyclopropyl-pyrazolo[1,5-a]pyrimidin-3-ylethynyl]-pyridine-3-sulfonic acid (2-hydroxy-1,1-dimethyl-ethyl)-amide]
8 | 214 to 216 °C | Cc1cc(-c2ccc(C(F)(F)F)cc2)nc2c(C#Cc3cccc(S(N)(=O)=O)c3)cnn12 [Example 151, 3-[7-Methyl-5-(4-trifluoromethyl-phenyl)-pyrazolo[1,5-a]pyrimidin-3-ylethynyl]-benzenesulfonamide]
9 | 230 to 232 °C | O=S(=O)(NC(CO)(CO)CO)c1cncc(C#Cc2cnn3c(C(F)(F)F)cc(-c4ccc(C(F)(F)F)cc4)nc23)c1 [Example 22, 5-[7-Trifluoromethyl-5-(4-trifluoromethyl-phenyl)-pyrazolo[1,5-a]pyrimidin-3-ylethynyl]-pyridine-3-sulfonic acid (2-hydroxy-1,1-bis-hydroxymethyl-ethyl)-amide]
10 | 206 °C | Cc1cc(C#Cc2cnn3c(C(F)(F)F)cc(-c4ccc(C(F)(F)F)cc4)nc23)ccn1 [Example 2, 3-(2-Methyl-pyridin-4-ylethynyl)-7-trifluoromethyl-5-(4-trifluoromethyl-phenyl)-pyrazolo[1,5-a]pyrimidine]
11 | 280 to 282 °C | Cc1cc(-c2ccc(Cl)cc2)nc2c(C#Cc3cnc(N)nc3)cnn12 [Example 316, 5-[5-(4-Chloro-phenyl)-7-methyl-pyrazolo[1,5-a]pyrimidin-3-ylethynyl]-pyrimidin-2-ylamine]
12 | 198 °C | Cc1ncccc1C#Cc1cnn2c(C(F)(F)F)cc(-c3ccc(C(F)(F)F)cc3)nc12 [Example 12, 3-(2-Methyl-pyridin-3-ylethynyl)-7-trifluoromethyl-5-(4-trifluoromethyl-phenyl)-pyrazolo[1,5-a]pyrimidine]
13 | 226 to 227 °C | CC(C)(CO)NS(=O)(=O)c1cncc(C#Cc2cnn3c(C(F)(F)F)cc(-c4ccc(C(F)(F)F)cc4)nc23)c1 [Example 11, 5-[7-Trifluoromethyl-5-(4-trifluoromethyl-phenyl)-pyrazolo[1,5-a]pyrimidin-3-ylethynyl]-pyridine-3-sulfonic acid (2-hydroxy-1,1-dimethyl-ethyl)-amide]
14 | 246 °C | Nc1ccc(C#Cc2cnc3c(C4CC4)cc(-c4ccc(Cl)cc4)cn23)cn1 [Example 233, 5-[6-(4-Chloro-phenyl)-8-cyclopropyl-imidazo[1,2-a]pyridin-3-ylethynyl]-pyridin-2-ylamine]
15 | 214 °C | CN1CCN(S(=O)(=O)c2ccc(C#Cc3cnn4c(C(F)F)cc(-c5cccc(C(F)(F)F)c5)nc34)s2)CC1 [Example 248, 7-Difluoromethyl-3-[5-(4-methyl-piperazine-1-sulfonyl)-thiophen-2-ylethynyl]-5-(3-trifluoromethyl-phenyl)-pyrazolo[1,5-a]pyrimidine]
16 | 137 °C | O=S(=O)(c1ccc(C#Cc2cnn3c(C(F)(F)F)cc(-c4ccc(C(F)(F)F)cc4)nc23)s1)N(CCO)CCO [Example 162, 5-[7-Trifluoromethyl-5-(4-trifluoromethyl-phenyl)-pyrazolo[1,5-a]pyrimidin-3-ylethynyl]-thiophene-2-sulfonic acid bis-(2-hydroxy-ethyl)-amide]
17 | 174 to 175 °C | Cc1ccc(C#Cc2cnn3c(C(F)(F)F)cc(-c4ccc(C(F)(F)F)cc4)nc23)cc1S(=O)(=O)NCCO [Example 34, N-(2-Hydroxy-ethyl)-2-methyl-5-[7-trifluoromethyl-5-(4-trifluoromethyl-phenyl)-pyrazolo[1,5-a]pyrimidin-3-ylethynyl]-benzenesulfonamide]
18 | 190 to 191 °C | CC(CO)(CO)NS(=O)(=O)c1cncc(C#Cc2cnn3c(C4CC4)cc(-c4ccc(C(F)(F)F)cc4)nc23)c1 [Example 80, 5-[7-Cyclopropyl-5-(4-trifluoromethyl-phenyl)-pyrazolo[1,5-a]pyrimidin-3-ylethynyl]-pyridine-3-sulfonic acid (2-hydroxy-1-hydroxymethyl-1-methyl-ethyl)-amide]
19 | 149 °C | Cc1cc(-c2cc(C(F)F)n3ncc(C#Cc4ccc(S(=O)(=O)NCCN(C)C)s4)c3n2)ccc1Cl [Example 256, 5-[5-(4-Chloro-3-methyl-phenyl)-7-difluoromethyl-pyrazolo[1,5-a]pyrimidin-3-ylethynyl]-thiophene-2-sulfonic acid (2-dimethylamino-ethyl)-amide]
20 | 191 °C | Cc1cc(-c2cc(C(F)F)n3ncc(C#Cc4ccc(S(=O)(=O)N5CCN(C)CC5)s4)c3n2)ccc1Cl [Example 255, 5-(4-Chloro-3-methyl-phenyl)-7-difluoromethyl-3-[5-(4-methyl-piperazine-1-sulfonyl)-thiophen-2-ylethynyl]-pyrazolo[1,5-a]pyrimidine]
21 | 220 °C | Cc1cc(-c2cc(C(F)F)n3ncc(C#Cc4ccc(S(=O)(=O)NC(C)(C)C)s4)c3n2)ccc1Cl [Example 171, 5-[5-(4-Chloro-3-methyl-phenyl)-7-difluoromethyl-pyrazolo[1,5-a]pyrimidin-3-ylethynyl]-thiophene-2-sulfonic acid tert-butylamide]
22 | 174 to 182 °C | N#CCCNS(=O)(=O)c1cccc(C#Cc2cnn3c(C(F)(F)F)cc(-c4ccc(C(F)(F)F)cc4)nc23)c1 [Example 47, N-(2-Cyano-ethyl)-3-[7-trifluoromethyl-5-(4-trifluoromethyl-phenyl)-pyrazolo[1,5-a]pyrimidin-3-ylethynyl]-benzenesulfonamide]
23 | 184 to 186 °C | COCCNS(=O)(=O)c1ccc(C#Cc2cnn3c(C(F)F)cc(-c4ccc(C(F)(F)F)cc4)nc23)cc1 [Example 139, 4-[7-Difluoromethyl-5-(4-trifluoromethyl-phenyl)-pyrazolo[1,5-a]pyrimidin-3-ylethynyl]-N-(2-methoxy-ethyl)-benzenesulfonamide]
24 | 195 °C | Cc1ccc(C#Cc2cnn3c(C(F)(F)F)cc(-c4ccc(C(F)(F)F)cc4)nc23)cn1 [Example 9, 3-(6-Methyl-pyridin-3-ylethynyl)-7-trifluoromethyl-5-(4-trifluoromethyl-phenyl)-pyrazolo[1,5-a]pyrimidine]
25 | 223 °C | NS(=O)(=O)c1ccc(C#Cc2ncn3c(C(F)F)cc(-c4ccc(C(F)(F)F)cc4)nc23)s1 [Example 275, 5-[4-Difluoromethyl-2-(4-trifluoromethyl-phenyl)-imidazo[1,5-a]pyrimidin-8-ylethynyl]-thiophene-2-sulfonic acid amide]
26 | 217 °C | Cc1cc(-c2cc(C(F)(F)F)n3ncc(C#Cc4ncc(S(=O)(=O)NC(C)(C)CO)s4)c3n2)ccc1Cl [Example 106, 2-[5-(4-Chloro-3-methyl-phenyl)-7-trifluoromethyl-pyrazolo[1,5-a]pyrimidin-3-ylethynyl]-thiazole-5-sulfonic acid (2-hydroxy-1,1-dimethyl-ethyl)-amide]
27 | 203 to 204 °C (dec.) | CC(C)(C)OC(=O)NCCNS(=O)(=O)c1cc(C#Cc2cnn3c(C(F)F)cc(-c4ccc(C(F)(F)F)cc4)nc23)c(F)cc1F [Example 185, (2-{5-[7-Difluoromethyl-5-(4-trifluoromethyl-phenyl)-pyrazolo[1,5-a]pyrimidin-3-ylethynyl]-2,4-difluoro-benzenesulfonylamino}-ethyl)-carbamic acid tert-butyl ester]
28 | 259 to 261 °C | NS(=O)(=O)c1ccc(C#Cc2cnn3c(C4CC4)cc(-c4ccc(Cl)c(Cl)c4)nc23)cc1 [Example 88, 4-[7-Cyclopropyl-5-(3,4-dichloro-phenyl)-pyrazolo[1,5-a]pyrimidin-3-ylethynyl]-benzenesulfonamide]
29 | 303 to 305 °C | Nc1ncc(C#Cc2cnn3c(C(F)(F)F)cc(-c4ccc(Cl)cc4)nc23)cn1 [Example 317, 5-[5-(4-Chloro-phenyl)-7-trifluoromethyl-pyrazolo[1,5-a]pyrimidin-3-ylethynyl]-pyrimidin-2-ylamine]
